Read-outs that look alike come from different tables or passages of the source.
Legend:
[1] = molecular target: T1, SF9 affinity purified rat farnesyl protein transferase (Rattus norvegicus, UniProt Q02293+Q04631); assay: PFT inhibitory activity (radiolabeled farnesyl pyrophosphate, streptavidin bead assay); format: biochemical
T1 construct: made in house; host or cells: Sf9 insect cells (baculovirus system inferred from b7)
Description: The protein:farnesyl transferase (PFT) or farnesyl protein transferase (FPT) inhibitory activity of compounds of the present invention were assayed in HEPES buffer (pH 7.4) containing 5 mM potassium phosphate and 20 μM ZnCl2. The solution also contained 5 mM DTT (dithiothreitol), 5 mM MgCl2, and 0.1% PEG 8000. Assays were performed in 96 well plates (Wallec) and employed solutions composed of varying concentrations of a compound of the present invention in 100% DMSO (dimethylsulfoxide). Upon addition of both substrates, radiolabeled farnesyl pyrophosphate ([1^3 H], specific activity 15-30 Ci/mmol, final concentration 134 nM) and (biotinyl)-Ahe-Thr-Lys-Cys-Val-Ile-Met ([3aS[3a alpha, 4 beta, 6a alpha]-hexahydro-2-oxo-1H-thieno[3,4-d]imidazole-5-pentanoic acid]-[7-aminoheptanoic acid]-Thr-Lys-Cys-Val-Ile-Met) (Ahe is 7-aminoheptanoic acid, Thr is threonine, Lys is lysine, Cys is cysteine, Val is valine, Ile is isoleucine and Met is methionine) (final concentration 0.2 μM), the enzyme reaction was started by addition of SF9 affinity purified rat farnesyl protein transferase. After incubation at 30° C. for 30 minutes, the reaction was terminated by diluting the reaction 2.5-fold with a stop buffer containing 1.5 M magnesium acetate, 0.2 M H3 PO4, 0.5% BSA (bovine serum albumin), and strepavidin beads (Amersham) at a concentration of 1.3 mg/mL. After allowing the plate to settle for 30 minutes at room temperature, radioactivity was quantitated on a microBeta counter (Model 1450, Wallec). The assay was also carried out without 5 mM potassium phosphate.

[2] = test system: ras farnesylation in ras-transformed cells; assay: Gel shift assay; format: cell-based; settings: ras-transformed cells, 18-hour incubation; read-out: Gel Shift (μM) MED (minimal effective dose to observe inhibition of ras farnesylation)
Description: Twenty-four hours after planting 2×10^6 ras-transformed cells per treatment condition, the farnesylation inhibitor is added at varying concentrations. Following an 18-hour incubation period, cells are lysed in phosphate-buffered saline containing 1% Triton X-100, 0.5% sodium deoxycholate, and 0.1% SDS (sodium dodecyl sulfate), pH 7.4 in the presence of several protease inhibitors (PMSF (phenylmethylsulfonylfluoride), antipain, leupeptin, pepstatin A, and aprotinin all at 1 μg/mL). Ras protein is immunoprecipitated from the supernatants by the addition of 3 μg v-H-ras Ab-2 (Y13-259 antibody from Oncogene Science). After overnight immunoprecipitation, 30 μL of a 50% protein G-Sepharose slurry (Pharmacia) is added followed by 45-minute incubation. Pellets are resuspended in 2× tris-glycine loading buffer (Novex) containing 5% β-mercaptoethanol and then denatured by 5 minutes boiling prior to electrophoresis on 14% Tris-glycine SDS gels. Using Western transfer techniques, proteins are transferred to nitrocellulose membranes followed by blocking in blocking buffer. Upon overnight incubation with primary antibody (pan-ras Ab-2 from Oncogene Science), an antimouse HRP (horse radish peroxidase) conjugate secondary antibody (Amersham) is employed for detection of the ras protein. Blots are developed using ECL(enhanced chemiluminescence) techniques (Amersham).

[3] = test system: H61 cells: NIH transformed 3T3 H-ras cells; assay: Clonogenic assay (6 well plates, soft agar); format: cell-based
Description: Clonoaenic Assay (6 well lates)
Sometime previous to setting up an actual test:
1. Make up 1.5% Bacto Agar in Milli-Q water and autoclave.
2. Make up 500 mL 2× DMEM-HG without phenol red by combining the following:
1 bottle DMEM base powder (Sigma D-5030)
Adjust pH to 7.1 with HCL; filter sterilize.
1. Set up makeshift water bath (beaker of water with thermometer, on hot plate) in the hood. Keep water temperature between 37° C. to 43° C.
2. […] 1.5% Bacto Agar for approximately 2 minutes on high, or until completely melted. Then let it cool somewhat before using it. (You can keep it from resolidifying by setting the bottle on the hot plate.) […]
3. Bottom Layer (0.6% agar) Top Layer (0.3% agar)
20% calf serum 20% calf serum
40% Bacto Agar (1.5%) 20% Bacto Agar (1.5%)
Depending on the volume of each layer needed, use either 50 mL conical tubes or 200 mL turnip tubes which can be floated in the "water bath".
4. Add 1 mL of bottom layer agar/medium to each well: deliver 1 mL warm agar/medium to a well; then using the tip of the pipet, spread the agar/medium around to completely cover the bottom. Repeat with next well.
5. Allow the plates to set at room temperature for about 5 minutes until the bottom layer solidifies.
6. Label sterile Falcon 2054 (12×75 mm) tubes and add appropriate volume of drug solutions into them.
7. Aliquot 4 AL of DMSO or drug solution per 1 mL of agar/medium to appropriate tubes; then add the agar/medium/cells to each tube. Always add 1 mL more than will actually be needed. Mix up and down in the pipet (gently); then deliver 1 mL to the center of each well. The upper layer is less viscous, so it will generally spread out over the bottom layer unaided. If necessary, rotate the plane of the plate gently to spread the top layer evenly over the bottom layer.
8. Let plates set for 5 or 10 minutes at room temperature to solidify, then put into 5% CO2, 37° C. incubator.
9. On Day 13, add 0.5 mL of INT (tetrazolium 1 mg/mL in Milli-Q H2 O, filter sterilized) and return plates to incubator.

[4] = HEPES buffer pH 7.4, without 5 mM potassium phosphate, read-out: IC50 (μM) Hepes
[5] = HEPES buffer pH 7.4 containing 5 mM potassium phosphate, read-out: IC50 (μM) 5 mM K3 PO4 -2

T1 sequence (Q02293 whole entry, one chain of several): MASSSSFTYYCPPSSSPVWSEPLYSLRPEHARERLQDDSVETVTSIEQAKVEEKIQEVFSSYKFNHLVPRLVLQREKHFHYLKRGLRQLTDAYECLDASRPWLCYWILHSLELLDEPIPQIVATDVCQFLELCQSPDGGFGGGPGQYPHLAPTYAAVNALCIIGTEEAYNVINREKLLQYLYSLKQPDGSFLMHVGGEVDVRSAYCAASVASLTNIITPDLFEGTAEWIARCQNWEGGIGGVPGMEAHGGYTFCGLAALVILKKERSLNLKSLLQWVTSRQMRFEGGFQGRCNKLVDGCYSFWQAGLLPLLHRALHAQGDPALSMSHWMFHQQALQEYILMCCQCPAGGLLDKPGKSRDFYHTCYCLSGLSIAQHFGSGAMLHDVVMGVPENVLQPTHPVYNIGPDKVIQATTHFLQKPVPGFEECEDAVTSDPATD

## O=C(CN(Cc1ccc(OCc2ccccc2)cc1)C(=O)[C@H](Cc1c[nH]cn1)NC(=O)OCc1ccccc1)NCCOCc1ccccc1 [Example 1, (S)-N-[(Phenylmethoxy)carbonyl]-L-histidyl-N-[2-(phenylmethoxy)ethyl]-N. sup.2-[[4-(phenylmethoxy)phenyl]-methyl]alycinamide]
[1]; [4]
  IC50: 7.7 µM
[1]; [5]
  IC50: 0.26 µM
[2]
  minimal effective concentration: 1 µM
[3]; average obtained by additional tests, read-out: Clonogenic Assay IC50 (μM), number in parentheses
  IC50: 14.3 µM
[3]; colonies counted after Day 13, read-out: Clonogenic Assay IC50
  IC50: 2.7 µM

## CC(CNC(=O)CN(Cc1ccc(OCc2ccccc2)cc1)C(=O)[C@H](Cc1c[nH]cn1)NC(=O)NCc1ccccc1)c1ccccc1 (stereo partly drawn) [Example 26, (S)-N-(4-Benzyloxy-benzyl)-2-(3-benzyl-ureido)-3-(1H-imidazole-4-yl)-N-[(2-phenyl-propylcarbamoyl)-methyl]-propionamide]
[1]; [4]
  IC50: 0.15 µM
[1]; [5]
  IC50: 0.009 µM

## CC(CNC(=O)CN(Cc1ccc(Br)cc1)C(=O)[C@H](Cc1c[nH]cn1)NC(=O)OCc1ccccc1)c1ccccc1 (stereo partly drawn) [Example 29, (S)-[1-{(4-Bromo-benzyl)-[(2-phenyl-propylcarbamoyl)-methyl]-carbamoyl}-2-(1H-imidazole-4-yl)-ethyl]-carbamic Acid Benzyl Ester]
[2]
  minimal effective concentration: 0.1 µM
[3]; 312 h, colonies counted after Day 13, read-out: Clonogenic Assay IC50
  IC50: > 1 µM

## CC(CNC(=O)CN(Cc1cccc2ccccc12)C(=O)[C@H](Cc1c[nH]cn1)NC(=O)OCc1ccccc1)c1ccccc1 (stereo partly drawn) [Example 37, (S)-(2-(1H-Imidazole-4-yl)-1-{naththalen-1-ylmethyl-[(2-phenyl-propylcarbamoyl)-methyl]-carbamoyl}-ethyl)-carbamic Acid Benzyl Ester]
[1]; [4]
  IC50: 0.92 µM
[1]; [5]
  IC50: 0.026 µM
[2]
  minimal effective concentration: ≥ 0.2 µM

## CC(C)(CNC(=O)CN(Cc1ccccn1)C(=O)[C@H](Cc1c[nH]cn1)NC(=O)OCc1ccccc1)c1ccccc1 [Example 46, (S)-(2-(1H-Imidazole-4-yl)-1-{[(2-methyl-2-phenyl-propylcarbamoyl)-methyl]-pyridin-2-ylmethyl-carbamoyl}-ethyl)-carbamic Acid Benzyl Ester]
[1]; [4]
  IC50: 1.98 µM
[1]; [5]
  IC50: 0.034 µM
[2]
  minimal effective concentration: 1 µM

## CC(CNC(=O)CN(Cc1ccc(N(C)C)cc1)C(=O)[C@H](Cc1c[nH]cn1)NC(=O)OCc1ccccc1)c1ccccc1 (stereo partly drawn) [Example 48, (S)-[1-{(4-Dimethylamino-benzyl)-[(2-phenyl-propylcarbamoyl)-methyl]-carbamoyl}-2-(1H-imidazole-4-yl)-ethyl]-carbamic Acid Benzyl Ester]
[1]; [4]
  IC50: 0.5 µM
[1]; [5]
  IC50: 0.0029 µM
[2]
  minimal effective concentration: 0.05 µM

## CC(C)(CNC(=O)CN(Cc1ccc(OCc2ccccc2)cc1)C(=O)[C@H](Cc1c[nH]cn1)NC(=O)OCc1ccsc1)c1ccccc1 [Example 54, (S)-[1-{(4-Benzyloxy-benzyl)-[(2-methyl-2-henyl-propylcarbamoyl)-methyl]-carbamoyl}-2-(1H-imidazole-4-yl)-ethyl]-carbamic acid thiophen-3-ylmethyl Ester]
[1]; [4]
  IC50: 0.2 µM
[1]; [5]
  IC50: 0.0012 µM
[2]
  minimal effective concentration: 0.2 µM

## CC(C(=O)NCC(C)(C)c1ccccc1)N(Cc1ccc(Cl)cc1)C(=O)[C@H](Cc1cnc[nH]1)NC(=O)OCc1ccccc1 (stereo partly drawn) [Example 55, (S)-[1-{(4-Chloro-benzyl)-[1-(2-methyl-2-phenyl-propylcarbamoyl)-ethyl]-carbamoyl}-2-(3H-imidazole-4-yl)-ethyl]-carbamic Acid Benzyl Ester]
[1]; [4]
  IC50: 0.86 µM
[1]; [5]
  IC50: 0.014 µM
[2]
  minimal effective concentration: 0.05 µM

## Cc1ccc(CN(CC(=O)NCC(C)(C)c2ccccc2)C(=O)[C@H](Cc2c[nH]cn2)NC(=O)OCc2ccccc2)cc1 [Example 56, (S)-(2-(1H-Imidazole-4-yl)-1-{(4-methyl-benzyl)-[(2-methyl-2-phenyl-propylcarbamoyl)-methyl]-carbamoyl}-ethyl)-carbamic Acid Benzyl Ester]
[1]; [4]
  IC50: 0.32 µM
[1]; [5]
  IC50: 0.012 µM
[2]
  minimal effective concentration: 0.05 µM

## COc1ccccc1CN(CC(=O)NCC(C)(C)c1ccccc1)C(=O)[C@H](Cc1c[nH]cn1)NC(=O)OCc1ccccc1 [Example 57, (S)-(2-(1H-Imidazole-4-yl)-1-{(2-methoxy-benzyl)-[(2-methyl-2-phenyl-propylcarbamoyl)-methyl]-carbamoyl}-ethyl)-carbamic Acid Benzyl Ester]
[1]; [4]
  IC50: 0.38 µM
[1]; [5]
  IC50: 0.0052 µM

## CN(Cc1ccccc1)C(=O)N[C@@H](Cc1c[nH]cn1)C(=O)N(CC(=O)NCC(C)(C)c1ccccc1)Cc1ccc(Cl)cc1 [Example 58, (S)-2-(3-Benzyl-3-methyl-ureido)-N-(4-chloro-benzyl)-3-(1H-imidazole-4-yl)-N-[(2-methyl-2-phenyl-propylcarbamoyl)-methyl]-propionamide]
[1]; [4]
  IC50: 0.029 µM
[1]; [5]
  IC50: 0.005 µM
[2]
  minimal effective concentration: 0.05 µM

## COc1cccc(CN(CC(=O)NCC(C)(C)c2ccccc2)C(=O)[C@H](Cc2c[nH]cn2)NC(=O)OCc2ccccc2)c1 [Example 59, (S)-(2-(1H-Imidazole-4-yl)-1-{(3-methoxy-benzyl)-[(2-methyl-2-phenyl-propylcarbamoyl)-methyl]-carbamoyl}-ethyl)-carbamic Acid Benzyl Ester]
[1]; [4]
  IC50: 0.52 µM
[1]; [5]
  IC50: 0.004 µM
[2]
  minimal effective concentration: 0.05 µM

## CC(C)(CNC(=O)CN(Cc1ccccc1OCc1ccncc1)C(=O)[C@H](Cc1c[nH]cn1)NC(=O)OCc1ccccc1)c1ccccc1 [Example 60, (S)-(2-(1H-Imidazole-4-yl)-1-{[(2-methyl-2-phenyl-propylcarbamoyl)-methyl]-[2-(pyridin-4-ylmethoxy)-benzyl]-carbamoyl}-ethyl)-carbamic Acid Benzyl Ester]
[1]; [4]
  IC50: 0.14 µM
[1]; [5]
  IC50: 0.016 µM
[2]
  minimal effective concentration: 0.05 µM

## CC(C)CN(CC(=O)NCC(C)c1ccccc1)C(=O)[C@H](Cc1c[nH]cn1)NC(=O)OCc1ccccc1 (stereo partly drawn) [Example 62, (S)-(2-(1H-Imidazol-4-yl)-1-{isobutyl-[(2-phenyl-propylcarbamoyl)-methyl]-carbamoyl}-ethyl)-carbamic Acid Benzyl Ester]
[1]; [4]
  IC50: 2.6 µM
[1]; [5]
  IC50: 0.029 µM

## [1-{Cyclohexylmethyl-[(2-phenyl-propylcarbamoyl)-methyl]-carbamoyl}-2-(3H-imidazole-4-yl)-ethyl]-carbamic Acid Benzyl Ester [Example 61]
[1]; [4]
  IC50: 0.66 µM
[1]; [5]
  IC50: 0.018 µM
[2]
  minimal effective concentration: 0.01 µM
